# Data: PubChem BioAssay (NCI)
#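 Exposure lasted 48 hours, with cells grown in 96-well plates and compounds tested at five concentrations. Definition used: TGI = concentration required for complete inhibition of growth.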
# Key:
# Assay in all cases: DTP human tumour cell line panel, 48 h
# ACHN renal = test system: ACHN renal
# SNB-75 CNS = test system: SNB-75 CNS
# KM12 colon = test system: KM12 colon
# HOP-92 NSCLC = test system: HOP-92 NSCLC
# M14 melanoma = test system: M14 melanoma
# MDA-MB-231 breast = test system: MDA-MB-231 breast
# SK-MEL-28 melanoma = test system: SK-MEL-28 melanoma
# SR leukemia = test system: SR leukemia
# SK-OV-3 ovarian = test system: SK-OV-3 ovarian
# K-562 leukemia = test system: K-562 leukemia
SMILES,TGI (ACHN renal) [µM],TGI (SNB-75 CNS) [µM],TGI (KM12 colon) [µM],TGI (HOP-92 NSCLC) [µM],TGI (M14 melanoma) [µM],TGI (MDA-MB-231 breast) [µM],TGI (SK-MEL-28 melanoma) [µM],TGI (SR leukemia) [µM],TGI (SK-OV-3 ovarian) [µM],TGI (K-562 leukemia) [µM]
NC(N)=NS(=O)(=O)c1ccc(NC(=O)c2cccc3c(NNc4ccc(S(N)(=O)=O)cc4)c4ccccc4nc23)cc1,> 100,> 100,> 100,85.6,> 100,> 100,> 100,82.6,> 100,55
NCCCCNCCCNC(=O)CNC(=O)CC(O)C(N)CCCC(NC(=O)C(CN)NC(=O)C(O)CNC(=O)CC(N)c1ccc(O)cc1)C(=O)O (stereo not given),> 10,> 10,> 10,> 10,> 10,> 10,> 10,> 10,> 10,> 10
O=C1N/N=C\c2ccc(cc2)OCc2cccc(n2)COc2ccc(cc2)/C=N\NC1=O,> 25,> 25,> 25,> 25,> 25,> 25,> 25,> 25,> 25,> 25
S=c1[nH]nc(Cn2c3ccc(Br)cc3c3nc4ccccc4nc32)n1C1CCCCC1,98.9,> 100,> 100,19.6,> 100,> 75.2,> 56.8,60.6,83.7,> 100
Cc1ccc(C(=O)Cc2nc3c([nH]c2=O)c(C)nn3-c2ccccc2)c(C)c1,> 10,3.46,> 10,> 10,> 10,> 10,> 10,> 10,> 10,> 10
CCN(CC)c1ccc(NC(=S)NN(C)C)cc1,> 10,> 10,> 10,> 10,> 10,> 10,> 10,> 10,> 10,> 10
CC(C)=CCC12Cc3ccc(O)cc3C(C(C)CN1)C2C (stereo not given),> 100,> 100,> 100,> 100,51.5,> 100,> 100,> 100,> 100,> 100
C[N+]1(CCN=C=NC2CCCCC2)CCOCC1,> 100,> 100,> 100,> 100,> 100,> 100,> 100,> 100,> 100,> 100
O=[N+]([O-])/C(Cl)=C(/C(Cl)=C(Cl)Cl)N1CCCCC1,30.7,56,27.6,30.2,23.3,41.6,30.3,7.5,> 100,25.3
Clc1cc(C(c2cc(Cl)sc2Cl)c2cc(Cl)sc2Cl)c(Cl)s1,> 100,> 100,> 100,> 100,> 100,> 100,> 100,> 100,> 100,> 100
CC1(C)OC[C@@H](C[C@H](O)COCc2ccccc2)O1,> 100,> 100,> 100,> 100,> 100,> 100,> 100,> 100,> 100,> 100
COc1cccc(N2C(=O)CS(=O)(=O)C2c2cccc(Oc3ccccc3)c2)c1 (stereo not given),60.2,84.5,> 100,68.5,89.7,> 100,> 100,13.1,> 100,19.5
Nc1nncc2[nH]cnc12,> 100,> 100,> 100,> 100,> 100,> 100,> 100,> 100,> 100,> 100
COc1cc2[nH]c(=O)c3cc(-c4ccccc4)cc4c(Cl)nc(c1OC)c2c43,77.6,> 60.3,> 100,> 79.3,> 62.9,> 100,> 100,> 100,> 73.9,> 100
CC(=O)C1(O)CCC2(O)C3(O)CC=C4CC(O)CCC4(C)C3CC(OC(=O)c3ccc(O)cc3)C12C (stereo not given),> 100,> 100,> 100,> 100,> 100,> 100,> 100,> 100,> 100,> 100
Cc1ccc(S(=O)(=O)c2c(O)c3ccc(O)c(C)c3oc2=O)cc1,> 100,> 100,> 100,> 100,> 100,> 100,> 100,> 100,> 100,> 100
C[C@H](c1ccccc1)N1C(=O)[C@@H](OCc2ccccc2)[C@H]1[C@H](COC(=O)COCc1ccccc1)OCc1ccccc1,> 100,> 100,> 100,> 100,> 100,> 100,> 100,> 100,> 100,> 100
Cc1cn(CCCCCOC(=O)NC(CCCNC(N)=O)C(=O)O)c(=O)[nH]c1=O (stereo not given),> 100,> 100,> 100,> 100,> 100,> 100,> 100,> 100,> 100,> 100
